Measurements as given in article PMC6811774, “Potent, selective, and subunit‐dependent activation of TRPC5 channels by a xanthine derivative” (British Journal of Pharmacology, 2019).

Biological target: T1, TRPC4-SYFP2 (TRPC4:C4 channels) (Homo sapiens, UniProt Q9UBN4)
T1 construct: expressed in transfected cells
T1 sequence (Q9UBN4 1-893 isoform Q9UBN4-2): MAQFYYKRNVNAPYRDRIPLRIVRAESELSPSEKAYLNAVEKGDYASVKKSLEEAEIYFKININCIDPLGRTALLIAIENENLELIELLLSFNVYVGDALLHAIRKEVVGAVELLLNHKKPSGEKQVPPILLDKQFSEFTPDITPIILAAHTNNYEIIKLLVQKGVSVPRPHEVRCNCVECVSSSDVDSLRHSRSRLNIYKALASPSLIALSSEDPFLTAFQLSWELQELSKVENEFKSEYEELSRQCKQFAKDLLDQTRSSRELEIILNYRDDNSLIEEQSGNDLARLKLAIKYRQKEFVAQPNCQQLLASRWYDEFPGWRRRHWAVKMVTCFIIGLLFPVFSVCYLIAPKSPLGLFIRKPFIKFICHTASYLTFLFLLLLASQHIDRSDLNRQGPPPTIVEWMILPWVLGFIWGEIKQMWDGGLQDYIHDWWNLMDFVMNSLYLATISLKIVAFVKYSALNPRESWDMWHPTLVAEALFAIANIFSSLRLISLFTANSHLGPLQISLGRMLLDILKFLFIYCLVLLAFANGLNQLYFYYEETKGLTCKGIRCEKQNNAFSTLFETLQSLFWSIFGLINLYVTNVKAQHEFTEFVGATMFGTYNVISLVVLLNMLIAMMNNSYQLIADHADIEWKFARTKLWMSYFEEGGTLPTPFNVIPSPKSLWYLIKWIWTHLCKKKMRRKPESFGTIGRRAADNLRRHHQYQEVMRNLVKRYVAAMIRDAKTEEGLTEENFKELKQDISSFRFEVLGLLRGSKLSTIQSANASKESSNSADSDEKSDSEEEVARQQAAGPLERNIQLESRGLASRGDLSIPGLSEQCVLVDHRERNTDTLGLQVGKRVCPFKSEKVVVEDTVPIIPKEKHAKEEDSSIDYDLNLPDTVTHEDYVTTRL
Assay: [Ca2+]i measurement in (Tet+) HEK T-REx cells expressing hTRPC4-SYFP2
Type: cell-based
Source text: To facilitate cloning of TRPC5‐SYFP2 and TRPC4‐SYFP2, a pcDNA™4/TO expression vector (ThermoFisher Scientific, Waltham, MA, USA), into which a four amino acid linker (ASAS) flanked by AgeI and SacII restriction sites had been introduced between EcoRI and XhoI restriction sites, was used (Naylor et al., 2016). Human TRPC4β was inserted between BamHI and AgeI restriction sites as described previously (Ludlow et al., 2017). Human TRPC5 (forward primer: 5′ GCTTGGTACCGCCACCATG 3′ and reverse primer: 5′ […] 3′) was inserted upstream of the linker between KpnI and AgeI restriction sites using hTRPC5/pcDNA™4/TO (Zeng et al., 2004) as a PCR template. Both constructs contained an N‐terminal Kozak sequence. SYFP2 was inserted downstream of the linker between SacII and XbaI restriction sites using pSYFP2‐C1 as a PCR template (forward primer, 5′ […] 3′; reverse primer, 5′ […] 3′). pSYFP2‐C1 was a gift from Dorus Gadella (Addgene plasmid #22878; http://n2t.net/addgene:22878; RRID:Addgene_22878; Kremers, Goedhart, van Munster, & Gadella, 2006). Plasmids were sequenced to verify identity.
HEK T‐REx™ cell line was transfected with TRPC5‐SYFP2 or TRPC4‐SYFP2 using FuGENE® HD transfection reagent. After 48 hr, cells were put under antibiotic selection using 400 μg·ml^−1 zeocin and 10 μg·ml^−1 blasticidin S (Invivogen, San Diego, California, USA). Medium changes were carried out regularly to remove dead cells. HEK T‐REx cells expressing tetracycline‐inducible human TRPC5, TRPC4–C1, and TRPC5–C1 were created as described previously (Akbulut et al., 2015; Ludlow et al., 2017; Rubaiy, Ludlow, Henrot, et al., 2017). TRPC5–C1 and TRPC4–C1 concatemers allow expression of functional channels with defined 2:2 stoichiometry that display ion permeability and current–voltage relationships distinct from those of homomeric TRPC4:C4 or TRPC5:C5 channels and consistent with those obtained upon co‐expression of TRPC1 with TRPC4 or TRPC5 (Ludlow et al., 2017; Rubaiy, Ludlow, Bon, & Beech, 2017; Rubaiy, Ludlow, Henrot, et al., 2017). […]

SMILES: Cn1c(=O)n(CCCO)c(=O)c2c1nc(Oc1ccc(Cl)c(OC(F)(F)F)c1)n2Cc1ccc(Cl)cc1 [AM237]
- Hill slope, inhibition of EA response: −0.78
- Effect of pretreatment on basal [Ca2+]i (0.3–300 nM AM237): did not affect
- Activation upon acute administration ([Ca2+]i) (3-300 nM AM237): lack of activation
